US10493077B2, “Fused imidazo-piperidine JAK inhibitor compound” (THERAVANCE BIOPHARMA R&D IP, LLC, priority 2017, dated 2019)

Tests used:
PAK4 = target: T1, PAK4 (Homo sapiens, UniProt O96013); experiment: Kinome screen, PAK4; type: binding; conditions: screened at 1 μM
T1 construct: made in house; host or cells: T7 phage in E. coli (BL21-derived) or HEK-293
Procedure: (§1) Kinase-tagged T7 phage strains were grown in parallel in 24-well blocks in an E. coli host derived from the BL21 strain. E. coli were grown to log-phase and infected with T7 phage from a frozen stock (multiplicity of infection=0.4) and incubated with shaking at 32° C. until lysis (90-150 minutes). The lysates were centrifuged (6,000×g) and filtered (0.2 μm) to remove cell debris. The remaining kinases were produced in HEK-293 cells and subsequently tagged with DNA for qPCR detection.
(§2) Streptavidin-coated magnetic beads were treated with biotinylated small molecule ligands for 30 minutes at room temperature to generate affinity resins for kinase assays. The liganded beads were blocked with excess biotin and washed with blocking buffer (SeaBlock (Pierce), 1% BSA, 0.05% Tween 20, 1 mM DTT) to remove unbound ligand and to reduce non-specific phage binding. […] Test compounds were prepared as 40× stocks in 100% DMSO and directly diluted into the assay. All reactions were performed in polypropylene 384-well plates in a final volume of 0.04 ml. […] The beads were then re-suspended in elution buffer (1×PBS, 0.05% Tween 20, 0.5 μM non-biotinylated affinity ligand) and incubated at room temperature with shaking for 30 minutes. The kinase concentration in the eluates was measured by qPCR.

AURKA = target: T2, AURKA (Homo sapiens, UniProt O14965); experiment: Kinome screen, AURKA; type: binding; conditions: screened at 1 μM
T2 construct: made in house; host or cells: T7 phage in E. coli (BL21-derived) or HEK-293
Procedure: as §1, §2

IFNγ induced pSTAT1 = experiment: Pharmacodynamic assay: inhibition of IFNγ-induced pSTAT1 in rabbit eyes; type: in vivo; conditions: rabbits
Procedure: The ability of a single intravitreal administration of test compound to inhibit interferon-gamma (IFNγ) induced phosphorylation of STAT1 protein (pSTAT1) was measured in rabbit retina/choroid tissue.
A suspension formulation was prepared by combining compound 1 of Example 2 (Form 1), with 0.5% hydroxypropyl methylcellulose (HPMC E5), 0.02% Tween 80, and 9 mg/mL sodium chloride in purified water to attain a target concentration of 20 mg/mL.
Male, New Zealand White rabbits (Liveon Biolabs, India) were used for the studies. Animals were acclimated after arrival at the research facilities (Jubilant Biosys Ltd., India). Each rabbit was given a total of two intravitreal (IVT) injections with a total dose volume of 50 μL per eye. The first IVT injection (45 μL per eye) delivered 0.9 mg of test compound or vehicle. […] On the day of the injections, rabbits were anesthetized with an intramuscular injection of ketamine (35 mg/kg) and xylazine (5 mg/kg). Once deeply anesthetized, each eye was rinsed with sterile saline and IVT injections were performed using a 0.5 mL insulin syringe (50 units=0.5 mL) with a 31-gauge needle at the supra-nasal side of the both eyes by marking the position with a Braunstein fixed caliper (2¾″) 3.5 mm from the rectus muscle and 4 mm from the limbus.
Tissues were collected 2 hours after the second IVT injection with IFNγ. Retina/choroid tissues (R/C) were collected and homogenized, and pSTAT1 levels were measured by quantitative Western Blot on the ProteinSimple WES instrument. The percent inhibition of IFNγ-induced pSTAT1 was calculated in comparison to the vehicle/vehicle and vehicle/IFNγ groups.
Male, New Zealand White rabbits (Liveon Biolabs, India) were used for the studies. Animals were acclimated after arrival at the research facilities (Jubilant Biosys Ltd., India). Each rabbit was given a total of two intravitreal (IVT) injections with a total dose volume of 50 μL per eye. The first IVT injection (45 μL per eye) delivered 500 μg, 150 μg, or 50 μg of test compound or vehicle. Two weeks later, a second IVT injection (5 μL per eye) delivered IFNγ (1 μg/eye; stock solution 1 mg/mL; Kingfisher Biotech) or vehicle for the induction of IP-10. On the day of the injections, rabbits were anesthetized with an intramuscular injection of ketamine (35 mg/kg) and xylazine (5 mg/kg). Once deeply anesthetized, each eye was rinsed with sterile saline and IVT injections were performed using a 0.5 mL insulin syringe (50 units=0.5 mL) with a 31-gauge needle at the supra-nasal side of the both eyes by marking the position with a Braunstein fixed caliper (2¾″) 3.5 mm from the rectus muscle and 4 mm from the limbus.

[1] = Dermal pharmacokinetics in mini-pig skin; type: in vivo; conditions: model cream and ointment formulations, without detectable plasma exposure
Excerpt: The objective of this assay was to determine the epidermal, dermal and plasma pharmacokinetics of a test compound following a 24 hr exposure to intact mouse or mini-pig skin.
Twenty-four hours prior to dosing the hair was shaved from the back of 25 g male Balb/c mice exposing an area at of least 6 cm^2 (about 10% of body surface) and, in a separate experiment, of 10 kg Gottingen mini-pigs exposing an area of at least 450 cm^2 (about 10% of body surface). At time zero, following isoflurane anesthesia, the test compound was applied to the back of mice or mini-pigs at a dose of 25 μL/cm^2. The skin was covered with an adhesive cover to prevent loss of compound to the cage or bedding.
Following 24 h exposure, the backs were gently washed with soap and water to remove non-absorbed drug and patted dry. Immediately following this washing, blood was drawn by cardiac puncture from the mice and via venipuncture from the mini-pigs. The outer skin (stratum corneum) was then removed by adhesive tape stripping. Upon exposure of the epidermis a 0.5 cm punch biopsy was taken. The epidermis and dermis were quickly separated, weighed and snap frozen. […]
Epidermis and dermis samples were homogenized in 1:10 (w/v) water using a Covaris ultrasonic homogenizer. Samples were extracted in 3 volumes of acetonitrile and quantified against a standard curve via LC-MS analysis.

T1 sequence (O96013 whole entry): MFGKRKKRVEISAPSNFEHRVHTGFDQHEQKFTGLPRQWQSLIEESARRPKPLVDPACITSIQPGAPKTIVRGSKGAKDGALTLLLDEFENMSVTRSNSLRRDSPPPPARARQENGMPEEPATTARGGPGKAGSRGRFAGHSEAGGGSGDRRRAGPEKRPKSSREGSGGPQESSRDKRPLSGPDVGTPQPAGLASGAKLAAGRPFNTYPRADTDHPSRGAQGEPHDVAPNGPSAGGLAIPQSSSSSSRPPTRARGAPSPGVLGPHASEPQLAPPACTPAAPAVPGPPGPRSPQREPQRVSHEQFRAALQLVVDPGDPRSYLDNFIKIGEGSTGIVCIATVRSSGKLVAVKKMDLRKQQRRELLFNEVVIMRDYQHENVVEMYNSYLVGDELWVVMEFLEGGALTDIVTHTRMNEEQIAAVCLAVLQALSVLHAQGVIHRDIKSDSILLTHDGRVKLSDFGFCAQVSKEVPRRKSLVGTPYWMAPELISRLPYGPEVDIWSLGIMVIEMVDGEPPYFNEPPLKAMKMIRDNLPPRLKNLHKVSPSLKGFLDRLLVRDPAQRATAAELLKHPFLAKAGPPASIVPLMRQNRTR
T2 sequence (O14965 whole entry): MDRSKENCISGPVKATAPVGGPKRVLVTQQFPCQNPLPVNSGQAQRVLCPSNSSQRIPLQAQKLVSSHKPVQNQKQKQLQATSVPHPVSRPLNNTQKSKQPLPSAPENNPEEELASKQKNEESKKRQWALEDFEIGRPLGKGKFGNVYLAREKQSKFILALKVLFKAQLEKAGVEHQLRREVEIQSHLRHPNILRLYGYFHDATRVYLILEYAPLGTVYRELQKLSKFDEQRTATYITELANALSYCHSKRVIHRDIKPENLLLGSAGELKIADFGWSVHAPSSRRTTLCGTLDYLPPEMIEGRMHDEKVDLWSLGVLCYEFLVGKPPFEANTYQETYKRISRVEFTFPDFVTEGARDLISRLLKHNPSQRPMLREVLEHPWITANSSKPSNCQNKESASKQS

Which results are given for `CCc1cc(O)c(F)cc1-c1cc(F)c2c(-c3nc4c([nH]3)CCN(C(=O)CN3CCOCC3)C4)n[nH]c2c1` [Compound 1, 1-(2-(6-(2-ethyl-5-fluoro-4-hydroxyphenyl)-4-fluoro-1H-indazol-3-yl)-1,4,6,7-tetrahydro-5H-imidazo[4,5-c]pyridin-5-yl)-2-morpholinoethan-1-one]?
inhibition at 1 µM (PAK4): 93%; inhibition at 1 µM (AURKA): 11%; inhibition of IFNγ-induced pSTAT1 in retina/choroid (IFNγ induced pSTAT1; Form 1 suspension, 0.9 mg intravitreal, 1 week pre-treatment): 85%; inhibition of IFNγ-induced pSTAT1 in retina/choroid (IFNγ induced pSTAT1; Form 1 suspension, single intravitreal dose, 3 month pre-treatment): 76%; inhibition of IFNγ-induced pSTAT1 in retina/choroid (IFNγ induced pSTAT1; Form 2 suspension, 50 μg intravitreal, 2 week pre-treatment): 61%; inhibition of IFNγ-induced pSTAT1 in retina/choroid (IFNγ induced pSTAT1; Form 2 suspension, 150 μg intravitreal, 2 week pre-treatment): 58%; inhibition of IFNγ-induced pSTAT1 in retina/choroid (IFNγ induced pSTAT1; Form 2 suspension, 500 μg intravitreal, 2 week pre-treatment): 79%; duration of sustained dermal levels [1]: at least 7 days
